Experimental data published in patent US20250064890A1, “PROTEIN COMPOSITIONS FOR THE TREATMENT OF INFLAMMATORY DISEASES” (Unichem Laboratories Limited, priority 2021, published 2025).
Read-outs that look alike come from different tables or passages of the source.

What was measured:
Type in all cases: cell-based, human
[1] = test system: oral (buccal) mucosa cells (TR146); assay: Cytoprotective effect against 5-FU induced damage (MTT)
Description: The cell viability was assessed by (MTT) assay and compared with positive control (Cells treated with Amifostine, EGCG and EGF and negative assay (untreated cells), wherein the control was the cells that underwent chemotherapy/radiotherapy.
(§1) The protective effect of the recombinant lectin on survival of TR146 cells against 5-FU induced damage was determined using following calculations:
(§2) The viability of cells was determined as: % Cell viability=(100−% Cytotoxicity); • where, the percentage cytotoxicity corresponding to each treatment was calculated as: % Cytotoxicity=[(R−X)/R]*100, wherein X=Absorbance of cells treated with 5-FU or radiation damage/TI+5-FU, R=Absorbance of Control cells (Untreated) and Percentage protection was calculated as:
(§3) {(Absorbance of TI+5-FU or radiation)−(Absorbance of 5-FU or radiation alone)/(Absorbance of Untreated)−(Absorbance of 5-FU alone)}*100

[2] = test system: oral (buccal) mucosa cells (TR146)
Description: as §1, §2, §3

[3] = test system: oral (buccal) mucosa cells (TR146); assay: Restoration of mitochondrial membrane potential (JC-1) against 5-FU induced damage; details: for MMP: mitochondrial membrane potential, red/green JC-1 fluorescence ratio
Description: (§4) Oral buccal mucosal cells (TR146) were incubated overnight in 5% CO2 incubator at 37° C. for 24 h. […] After 24 h of treatment, cells were exposed to damage (5-FU 5 mM) for 1.25 h for chemotherapy induced inflammation and exposed to gamma radiation (3.5 kGy) using Cobalt 60 for radiation induced inflammation. After the exposure, the anti-apoptotic effect of SEQ ID NO 2 was determined by restoration of mitochondrial membrane depolarization by JC-1 staining and reduction in apoptotic cell populations (Annexin positive and subG0/G1 cells in cell cycle analysis).
(§5) After incubation, the supernatants were discarded and 100 μl of JC1-dye solution (prepared by diluting 1 mM DMSO stock into 10 μM in 1×PBS) was added to each well. The cells were then incubated with the dye in CO2 incubator at 37° C. for 15 min, after which the supernatant was removed, and the cells were washed twice with 1×PBS. 100 μl of 1×PBS was finally added to each well. Red fluorescence (excitation 550 nm, emission 600 nm) and green fluorescence (excitation 485 nm, emission 535 nm) were measured using Biotek Synergy HT plate reader. The mitochondrial membrane potential (Δψm) was calculated as the ratio of intensity of red fluorescence to intensity of green fluorescence.
(§6) The percentage increase/restoration in mitochondrial membrane potential (MMP) was calculated as: % Increase=[(R−X)/R]*100 • Where, X=Δψm corresponding to TI+5-FU treated cells or TI+radiation treated cells; R=Δψm corresponding to control cells (FU damaged or Radiation damaged alone)

[4] = test system: oral (buccal) mucosa cells (TR146); assay: Restoration of mitochondrial membrane potential (JC-1) against radiation induced damage; details: for MMP: red/green JC-1 fluorescence ratio
Description: as §4, §5, §6

[5] = test system: oral (buccal) mucosa cells (TR146); assay: Annexin positive cell population against 5-FU damage
CCL-2 = assay: Multiplex analysis, radiotherapy, TR146
Description: (§7) Oral buccal mucosal cells (TR146) cells were incubated overnight at 37° C. in 5% CO2 incubator. […] The cells were then stimulated with 5-FU (10 mM) for another 24h for chemotherapy and with gamma radiation (3.5 kGy) using Cobalt 60 for radiotherapy. After 24 h, cell culture supernatants were collected from each well and stored at −20° C. till multiplex analysis. For NF-kB estimations, cell lysates were prepared. Levels of biomarkers were estimated using Magpix® multiplex machine. The cells treated with Amifostine (along with 5-FU or radiation) were considered as positive control (PC). Untreated cells (5-FU or radiation alone treated) were used as negative control (NC).
(§8) The percent modulation in each sample was determined as follows:
(§9) [{Concentration of biomarkers (pg/ml) in Control cells (5-FU or radiation alone treated)−Concentration of biomarkers (pg/ml) in SEQ ID NO: 2+5-FU or radiation treated cells)}/Concentration of biomarkers (pg/ml) in Control cells (5-FU or radiation alone treated)]*100

IL-1β = assay: Multiplex analysis, radiotherapy, TR146
Description: as §7, §8, §9

IL-6 = assay: Multiplex analysis, radiotherapy, TR146
Description: as §7, §8, §9

MMP-3 = assay: Multiplex analysis, radiotherapy, TR146
Description: as §7, §8, §9

MMP-8 = assay: Multiplex analysis, radiotherapy, TR146
Description: as §7, §8, §9

RAGE = assay: Multiplex analysis, radiotherapy, TR146
Description: as §7, §8, §9

TNF-α = assay: Multiplex analysis, radiotherapy, TR146
Description: as §7, §8, §9

VEGF = assay: Multiplex analysis, radiotherapy, TR146
Description: as §7, §8, §9

NF-kB = assay: Multiplex analysis, radiotherapy, TR146 cell lysates
Description: as §7, §8, §9

[6] = 0.1 μg/ml + Radiation (3.5 kGy)

Compound: NCCCNCCSP(=O)(O)O [Amifostine, reference compound]
- % Protection ([1]; 1 μg/ml + 5-FU (5 mM)): 4.1%
- % Protection ([1]; 5 μg/ml + 5-FU (5 mM)): 28.8%
- % Protection ([1]; 10 μg/ml + 5-FU (5 mM)): 55.2%
- % Protection ([1]; 25 μg/ml + 5-FU (5 mM)): 37.5%
- % Protection ([2]; 1 μg/ml + Radiation (3.5 kGy)): 7.7%
- % Protection ([2]; 5 μg/ml + Radiation (3.5 kGy)): 22.2%
- % Protection ([2]; 10 μg/ml + Radiation (3.5 kGy)): 43.1%
- % Protection ([2]; 25 μg/ml + Radiation (3.5 kGy)): 12%
- % Increase in MMP (with respect to control) ([3]; 1 μg/ml + 5FU): 68.7%
- MMP ([3]; 1 μg/ml + 5FU): 14.3
- % Increase in MMP (with respect to control) ([3]; 5 μg/ml + 5FU): 64.9%
- MMP ([3]; 5 μg/ml + 5FU): 14
- % Increase in MMP (with respect to control) ([3]; 10 μg/ml + 5FU): 85.3%
- MMP ([3]; 10 μg/ml + 5FU): 15.7
- % Increase in MMP (with respect to control) ([3]; 25 μg/ml + 5FU): 90%
- MMP ([3]; 25 μg/ml + 5FU): 16.1
- % Increase in MMP (with respect to control) ([3]; 50 μg/ml + 5FU): 105.2%
- MMP ([3]; 50 μg/ml + 5FU): 17.4
- % Increase in MMP (with respect to control) [4, 6]: 28.2%
- MMP [4, 6]: 5.90
- % Increase in MMP (with respect to control) ([4]; 1 μg/ml + Radiation (3.5 kGy)): 39.7%
- MMP ([4]; 1 μg/ml + Radiation (3.5 kGy)): 6.43
- % Increase in MMP (with respect to control) ([4]; 10 μg/ml + Radiation (3.5 kGy)): 35.2%
- MMP ([4]; 10 μg/ml + Radiation (3.5 kGy)): 6.23
- % Apoptotic cells (Annexin +ve) ([5]; 1 μg/ml + 5FU (10 mM)): 2.4%
- % Decrease in Apoptotic cells (with respect to 5-FU) ([5]; 1 μg/ml + 5FU (10 mM)): 85.7%
- % Apoptotic cells (Annexin +ve) ([5]; 10 μg/ml + 5FU (10 mM)): 2.6%
- % Decrease in Apoptotic cells (with respect to 5-FU) ([5]; 10 μg/ml + 5FU (10 mM)): 84.5%
- % Apoptotic cells (Annexin +ve) ([5]; 50 μg/ml + 5FU (10 mM)): 2.8%
- % Decrease in Apoptotic cells (with respect to 5-FU) ([5]; 50 μg/ml + 5FU (10 mM)): 82.9%
- Percentage Inhibition CCL-2 (CCL-2; [6]): 23.1%
- Percentage Inhibition CCL-2 (CCL-2; 10 μg/ml + Radiation (3.5 kGy)): 0.1%
- Percentage Inhibition IL-1β (IL-1β; [6]): 10.7%
- Percentage Inhibition IL-1β (IL-1β; 10 μg/ml + Radiation (3.5 kGy)): 12.1%
- Percentage Inhibition IL-6 (IL-6; [6]): 14.2%
- Percentage Inhibition IL-6 (IL-6; 10 μg/ml + Radiation (3.5 kGy)): 1.3%
- Percentage Inhibition MMP-3 (MMP-3; [6]): 51.9%
- Percentage Inhibition MMP-3 (MMP-3; 10 μg/ml + Radiation (3.5 kGy)): 47.4%
- Percentage Inhibition MMP-8 (MMP-8; [6]): 3.6%
- Percentage Inhibition MMP-8 (MMP-8; 10 μg/ml + Radiation (3.5 kGy)): 13%
- Percentage Inhibition RAGE (RAGE; [6]): 45.1%
- Percentage Inhibition RAGE (RAGE; 10 μg/ml + Radiation (3.5 kGy)): 40.3%
- Percentage Inhibition TNF-α (TNF-α; [6]): 49.3%
- Percentage Inhibition TNF-α (TNF-α; 10 μg/ml + Radiation (3.5 kGy)): 44.3%
- Percentage Inhibition VGEF (VEGF; [6]): 10.3%
- Percentage Inhibition VGEF (VEGF; 10 μg/ml + Radiation (3.5 kGy)): 7.2%
- Percentage Inhibition NF-kB (NF-kB; [6]): 15.8%
- Percentage Inhibition NF-kB (NF-kB; 10 μg/ml + Radiation (3.5 kGy)): 17.7%
